Here are results for 49 compounds from PubChem BioAssay AID2842 (Southern Research Institute, 2010).

In brackets after ≈: the same amount, converted by molar mass. Some results are limits rather than exact numbers.

In the assay the test system is M. tuberculosis H37Rv growth inhibition. Briefly: Mycobacterium tuberculosis H37Rv growth inhibition, putative kinase inhibitor library, confirmatory dose response (AID 2842).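 Also: bacteria incubated one week before Alamar blue readout.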

In general, IC90 refers to the point of the concentration-response curve where the effect stands at 90%. As to `O=C(Cc1ccccc1)Nc1nnc(-c2ccc3c(c2)OCCO3)o1`, the IC90 was 15.8 µg/mL (≈ 47 µM).

On to `Cc1ccc(C)c2sc(N(CCCn3ccnc3)C(=O)COc3ccccc3)nc12`, for which the 90% effect concentration (IC90) is 6.05 µg/mL (≈ 14.4 µM).

For the compound `CCOC(=O)Cn1c(=NC(=O)c2ccc([N+](=O)[O-])s2)sc2cc(S(C)(=O)=O)ccc21`, the concentration for an effect of 90% (IC90) was 21.8 µg/mL (≈ 46.5 µM).

As to `CCOC(=O)C(C)Sc1ncnc2c1cnn2-c1ccc(F)cc1` (centres undefined), the concentration for an effect of 90% (IC90) is 4.73 µg/mL (≈ 13.7 µM).

Regarding `COC(=O)CSCC(=O)Nc1nnc(-c2ccccc2C)s1`, the IC90 was 13.7 µg/mL (≈ 40.7 µM).

Take `O=C(Nc1nnc(-c2cc(Cl)ccc2Cl)o1)c1cc(Cl)ccc1Cl`: the concentration for an effect of 90% (IC90) is 0.49 µg/mL (≈ 1.22 µM).

On to `Cc1ccc(C(=O)Nc2nnc(-c3ccc(C)cc3C)o2)cc1`, for which the concentration for an effect of 90% (IC90) is 33.5 µg/mL (≈ 109 µM).

Consider `CC1CCc2c(sc(Nc3nc4c(F)cccc4s3)c2C(N)=O)C1` (centres undefined), for which the concentration for an effect of 90% (IC90) is 8.58 µg/mL (≈ 23.7 µM).

With `CCCCCOc1ccc(C(=O)Nc2nnc(-c3ccco3)o2)cc1`, the IC90 was 8.78 µg/mL (≈ 25.7 µM).

In the case of `COc1ccc2nc(Nc3nc(-c4cccs4)cs3)sc2c1`, the 90% effect concentration (IC90) is 37.8 µg/mL (≈ 109 µM).

`Cc1cc(C)c2sc(NNC(=O)c3nc4ccccc4s3)nc2c1`: the IC90 is 15.5 µg/mL (≈ 43.7 µM).

For `CC1CCc2c(sc(Nc3nc4ccc(F)cc4s3)c2C(N)=O)C1` (centres undefined), the concentration for an effect of 90% (IC90) is 35.8 µg/mL (≈ 99 µM).

With `CCOC(=O)N1CCc2c(sc(NC(=O)c3ccc(F)cc3)c2C(N)=O)C1`, the IC90 is 1.89 µg/mL (≈ 4.83 µM).

Turning to `Cc1cccc(Cn2c(N3CCN(Cc4ccc(Cl)cc4)CC3)nc3c2c(=O)[nH]c(=O)n3C)c1`, the concentration for an effect of 90% (IC90) was 3.15 µg/mL (≈ 6.58 µM).

For `CCC(=O)Nc1nnc(-c2cc(Cl)ccc2Cl)o1`, the IC90 is 30.1 µg/mL (≈ 105 µM).

Turning to `CC(C)C(=O)Nc1nnc(-c2cc(Cl)ccc2Cl)o1`, the IC90 was 26.9 µg/mL (≈ 89.5 µM).

Turning to `O=C(Nc1nnc(-c2ccc3c(c2)CCCC3)o1)c1cccc(Cl)c1`, the 90% effect concentration (IC90) is 8.65 µg/mL (≈ 24.4 µM).

For `O=C(CCSc1ccccc1)Nc1nnc(-c2ccc3c(c2)CCCC3)o1`, the 90% effect concentration (IC90) was 1.93 µg/mL (≈ 5.09 µM).

With `Cc1ccccc1Nc1nc(-c2cccnc2)nc2ccccc12`, the 90% effect concentration (IC90) is 7.35 µg/mL (≈ 23.5 µM).

Take `Fc1cccc2sc(Nc3nc(-c4ccccn4)cs3)nc12`: the 90% effect concentration (IC90) is less than 0.2 µg/mL.

With `Cc1cccc(C(=O)Nc2nnc(-c3cc(C)ccc3C)o2)c1`, the IC90 was 3.39 µg/mL (≈ 11 µM).

In the case of `CCOc1ccc(NCCCn2c(C)cn3c4c(=O)[nH]c(=O)n(C)c4nc23)cc1`, the concentration for an effect of 90% (IC90) was 20.5 µg/mL (≈ 51.7 µM).

With `CC(C)CCn1c(N2CCN(Cc3cccc(Cl)c3)CC2)nc2c1c(=O)[nH]c(=O)n2C`, the 90% effect concentration (IC90) was 14.1 µg/mL (≈ 31.8 µM).

For the compound `COc1cccc(-c2nnc(NC(=O)c3ccc(Cl)cc3)o2)c1`, the concentration for an effect of 90% (IC90) was 33.8 µg/mL (≈ 102 µM).

For `O=C(CSCc1ccc(Cl)c(Cl)c1)Nc1ccc(F)cc1`, the IC90 was 12.9 µg/mL (≈ 37.4 µM).

With `CCOC(=O)N1CCc2c(sc(NC(=O)CCSc3ccccc3)c2C(N)=O)C1`, the IC90 is 8.5 µg/mL (≈ 19.6 µM).

For the compound `O=C(Nc1nnc(-c2ccco2)o1)c1cccc(C(F)(F)F)c1`, the IC90 is less than 0.2 µg/mL.

With `Cc1c(CCC#N)c(=O)n2c([nH]c3ccccc32)c1C#N`, the IC90 was 2.29 µg/mL (≈ 8.29 µM).

As to `Cc1ccccc1C(=O)N1N=C(c2c(-c3ccccc3)c3cc(Br)ccc3[nH]c2=O)CC1c1ccccc1` (centres undefined), the concentration for an effect of 90% (IC90) is 1.68 µg/mL (≈ 2.99 µM).

On to `Cc1oc2c(c1C(=O)NCc1cccnc1)C(=O)c1ccccc1C2=O`, for which the concentration for an effect of 90% (IC90) is 8.29 µg/mL (≈ 23.9 µM).

Take `CCCCN1C(=O)c2cccc3c(NC(=O)c4ccc([N+](=O)[O-])s4)ccc1c23`: the IC90 was 22.7 µg/mL (≈ 57.3 µM).

Turning to `Cc1cc(C)cc(OCCCn2c(CO)nc3ccccc32)c1`, the IC90 is 14 µg/mL (≈ 45 µM).

In the case of `COc1cccc2sc(Nc3nc4ccc(C(C)C)cc4s3)nc12`, the concentration for an effect of 90% (IC90) was 2.24 µg/mL (≈ 6.3 µM).

Take `Cc1ccc(-c2nnc(NC(=O)c3ccccc3Cl)o2)c(C)c1`: the concentration for an effect of 90% (IC90) was less than 0.2 µg/mL.

For the compound `CC(=O)c1cccc(Nc2nc(Nc3ccc(F)c(Cl)c3)nc(N3CCOCC3)n2)c1`, the IC90 was 8.38 µg/mL (≈ 18.9 µM).

Regarding `COc1ccccc1Cn1cc2c(-c3ccccc3)nnc-2c2cc(OC)c(OC)cc21`, the 90% effect concentration (IC90) was 7.59 µg/mL (≈ 17.8 µM).

For `O=C(Nc1nnc(-c2ccc3c(c2)CCCC3)o1)c1ccccc1Cl`, the IC90 is 1.11 µg/mL (≈ 3.14 µM).

In the case of `OCCN1CCN(c2nc(Nc3cccc(Cl)c3)c3cnn(-c4ccccc4)c3n2)CC1`, the IC90 is 0.73 µg/mL (≈ 1.62 µM).

Turning to `N=C1SCC(=O)N1c1ncc(Cc2cccc(Cl)c2)s1`, the IC90 is 2.11 µg/mL (≈ 6.52 µM).

For `COc1ccc(OC)c2sc(N(CCCn3ccnc3)C(=O)c3ccc(F)cc3)nc12`, the IC90 was 13.5 µg/mL (≈ 30.6 µM).

On to `Fc1cccc2sc(Nc3nnc(-c4ccco4)o3)nc12`, for which the IC90 is 2.08 µg/mL (≈ 6.88 µM).

As to `COC(=O)c1c(NC(=O)c2ccccc2I)sc2c1CC(C)(C)NC2(C)C`, the IC90 was 13.2 µg/mL (≈ 26.6 µM).

With `COc1ccc(-c2noc(-c3cc(C(C)C)[nH]n3)n2)cc1`, the IC90 is 12.2 µg/mL (≈ 42.8 µM).

Consider `CC(C)(C)c1ccc(C(=O)Nc2nnc(-c3ccco3)o2)cc1`, for which the concentration for an effect of 90% (IC90) was 1.18 µg/mL (≈ 3.79 µM).

Regarding `Cc1ccc(C(=O)Nc2nnc(-c3ccc(C)cc3C)o2)c(C)c1`, the 90% effect concentration (IC90) was 3.99 µg/mL (≈ 12.4 µM).

With `CCc1cccc2sc(N(CCCn3ccnc3)C(=O)c3ccc(OC)c(OC)c3)nc12`, the IC90 was 13.9 µg/mL (≈ 30.9 µM).

In the case of `COc1ccc2nc(N(CCCn3ccnc3)C(=O)c3cccc(OC)c3OC)sc2c1`, the IC90 was 11.3 µg/mL (≈ 24.9 µM).

As for `Cc1ccc(-n2ccnc(NCC(C)c3ccccc3)c2=O)cc1C` (centres undefined), the IC90 is 18.1 µg/mL (≈ 54.4 µM).

On to `Cc1nnc2ccc(-c3cccc(NC(=O)COc4ccc(Cl)cc4)c3)nn12`, for which the IC90 was 23.5 µg/mL (≈ 59.6 µM).
